For 2 compounds, IC50 results are on record in ChEMBL document CHEMBL5370560, “Isolation of Anti-SARS-CoV-2 Natural Products Extracted from Mentha canadensis and the Semi-synthesis of Antiviral Derivatives” (J Nat Prod, 2023).

SMILES strings stand for the structures.

This experiment deals with Replicase polyprotein 1ab (Severe acute respiratory syndrome coronavirus 2, UniProt P0DTD1). Put plainly: Inhibition of recombinant SARS-CoV-2 Delta 3CL protease using Dabcyl-KTSAVLQSGFRKME-Edans as substrate preincubated for 30 mins followed by substrate addition and measured for 1 hr by fluorescence based microplate reader analysis.

As usually defined, the IC50 is the concentration at which inhibition is half-maximal.

Take `CCCCCCCCCCCCNC(=O)[C@@H](Cc1ccc(O)c(O)c1)OC(=O)/C=C/c1ccc(O)c(O)c1`: the IC50 came out at 40.8 µM.

Turning to `CCc1cccc(NC(=O)[C@@H](Cc2ccc(O)c(O)c2)OC(=O)/C=C/c2ccc(O)c(O)c2)c1`, the IC50 was determined as 45.7 µM.
